Data set [1] has as its system MCF7. The data set can be described thus: Antiproliferative activity against estrogen receptor positive human MCF7 cells assessed as inhibition of cell growth incubated for 72 hrs by MTT assay. The class given is functional, cell-based. The settings on record: MCF7, 72 h.
The test system of data set [2] is K562. Nature of the data set: Antiproliferative activity against human K562 cells assessed as inhibition of cell growth incubated for 72 hrs by MTT assay. Format: functional, cell-based. The settings on record: K562, 72 h.
Data set [3] has as its system A549. Nature of the data set: Potency index, ratio of doxorubicin IC50 to test compound IC50 for antiproliferative activity against human A549 cells assessed as inhibition of cell growth incubated for 72 hrs by MTT assay. The class given is functional.
Data set [4] concerns HL-60. The data set can be described thus: Antiproliferative activity against human HL-60 cells assessed as inhibition of cell growth incubated for 72 hrs by MTT assay. The class given is functional, cell-based. The settings on record: HL-60, 72 h.
Data set [5] has as its system Jurkat. The data set can be described thus: Antiproliferative activity against human Jurkat cells assessed as inhibition of cell growth incubated for 72 hrs by MTT assay. Format: functional, cell-based.
The subject of data set [6] is MDA-MB-231. The data set can be described thus: Antiproliferative activity against estrogen receptor negative human MDA-MB-231 cells assessed as inhibition of cell growth incubated for 72 hrs by MTT assay. The class given is functional, cell-based. The settings on record: MDA-MB-231, 72 h.
The test system of data set [7] is Raji. The data set can be described thus: Antiproliferative activity against human Raji cells assessed as inhibition of cell growth incubated for 72 hrs by MTT assay. The class given is functional, cell-based.
In data set [8] the test system is A549. The data set can be described thus: Potency index, ratio of cleistenolide IC50 to test compound IC50 for antiproliferative activity against human A549 cells assessed as inhibition of cell growth incubated for 72 hrs by MTT assay. Format: functional.
Data set [9] deals with HeLa. Nature of the data set: Antiproliferative activity against human HeLa cells assessed as inhibition of cell growth incubated for 72 hrs by MTT assay. Format: functional, cell-based.
The test system of data set [10] is A549. The data set can be described thus: Antiproliferative activity against human A549 cells assessed as inhibition of cell growth incubated for 72 hrs by MTT assay. The class given is functional, cell-based. The settings on record: A549, 72 h.
The nature of data set [11]: Cytotoxicity against human MRC5 cells assessed as inhibition of cell growth incubated for 72 hrs by MTT assay. The settings on record: human, MRC5 cells. The class given is toxicity, cell-based.

The structures appear in SMILES notation.

In the case of `CC(=O)O[C@H](COC(=O)c1ccccc1)[C@H]1OC(=O)C=C[C@H]1OC(=O)/C=C/c1ccc([N+](=O)[O-])cc1`, the IC50 came to 21.3 µM in data set [1]; 5.82 µM in data set [2]; 24.5 µM in data set [4]; 23.5 µM in data set [5]; 15.5 µM in data set [6]; 25 µM in [7]. The concentration for half-maximal inhibition (IC50) in [9] was determined as 13.3 µM; in [10] it was 2.55 µM. Further, the entries for the “Ratio IC50” value in data set [3] and in data set [8] were about 2 and over 6, respectively. For the same molecule, the half-maximal inhibitory concentration (IC50) at 72 h in data set [11] was over 100 µM.

The values above are taken from ChEMBL document CHEMBL5614384, “Synthesis and antiproliferative activity of (-)-cleistenolide, (6S)-cleistenolide and 4-substituted cleistenolide analogues” (Bioorg Med Chem, 2024).
